Reference: PMC9915956, “Identification of Potent Zika Virus NS5 RNA-Dependent RNA Polymerase Inhibitors Combining Virtual Screening and Biological Assays” (International Journal of Molecular Sciences, 2023)
Read-outs that look alike come from different tables or passages of the source.

Columns and labels:
[1] = WST-8 cell viability (cytotoxicity) assay; details: human
Method: (§1) The WST-8 assay was used to evaluate the cytotoxicity of the compounds. Huh-7 cells (1 × 10^4 cells/well) were seeded in a 96-well plate and different concentrations of compounds were added the next day. After a 24 h incubation, the supernatant was discarded and WST-8 reagent (1:10 diluted by DMEM) was added. The cell viability was assessed using a Microplate Reader (ELx808, Biotek, North Chesterfield, VA, USA) at 450 nm.

Huh-7 cells [2] = test: WST-8 cell viability (cytotoxicity) assay; details: Huh-7 cells
Method: as §1

ZIKV (SMGC-1) = test: Anti-ZIKV activity by FACS of ZIKV E protein-positive cells; type: cell-based; details: Zika virus, read-out: EC50 anti-ZIKV activity (reduction of ZIKV E protein-positive cells)
Method: Huh-7 cells were infected with ZIKV (SMGC-1) and incubated with different concentrations of compounds. After 48 h, the cells were fixed and permeabilized, followed by staining with the FITC-anti-ZIKV E protein antibody. When detected by FACS, the FITC intensity in the given cell population reflected the ZIKV E protein-positive cells, indicting the cells infected with ZIKV.
Huh-7 cells were seeded into 24-well plates and infected with ZIKV (SMGC-1) at a multiplicity of infection (MOI) of 0.2. […] Chloroquine was used as a positive control. Cells were fixed and permeabilized for 20 min using a Fixation/Permeabilization Solution Kit. After washing, the cells were incubated with FITC-anti-ZIKV E protein antibody for 30 min. Then, ZIKV E protein-positive cells were detected in a FACS Analyzer and analyzed by FlowJo (TreeStar, Ashland, OR, USA). The EC50s of the compounds were calculated as the reduction ratio of ZIKV E protein-positive cells over the concentrations of the compounds.

dengue virus = details: by targeting OSBP; read-out: EC50 dengue virus replication; cited from earlier work
[3] = test system: ZIKV sub-genomic replicon RNA; details: Hela cells, single concentration of 10 μM; cited from earlier work
ZIKV NS5 RdRp [4] = molecular target: T1, ZIKV NS5 RdRp (Zika virus, UniProt A0A024B7W1); test: Fluorescence-based alkaline phosphatase-coupled polymerase assay, RdRp enzymatic inhibition; type: biochemical; details: compounds incubated with RdRp for 30 min; WT-RdRp; read-out: IC50 to inhibit RdRp activity
Method: The activity of RdRp was measured by a fluorescence-based alkaline phosphatase-coupled polymerase assay established previously in our lab. Briefly, RdRp catalyzed the transfer of adenosine 5′-monophosphate from γ-(BBT)-ATP to the RNA chain, generating the byproduct BBTppi. Subsequently, BBTppi was hydrolyzed by alkaline phosphatase to fluorescent BBT (ex/em 430/560 nm).
The plasmid pET30a-RdRp, constructed in our laboratory, was transformed into E. coli Transetta (DE3) for RdRp expression and purified. The bacteria were grown in ZYM-5052 culture medium. RdRp with the His tag was loaded on a Ni^2+ HisTrap chelating column and then eluted in a buffer containing imidazole in the ÄKTA system. The purified proteins were verified by SDS-PAGE and Western blotting. RdRp activity was analyzed using a fluorescence-based alkaline phosphatase-coupled polymerase assay. The inhibitory effect of the compounds against RdRp was evaluated using the protocol developed in our laboratory.

ZIKV NS5 RdRp [5] = molecular target: T1, ZIKV NS5 RdRp; test: SPR binding to immobilized RdRp; details: CM5 chip, 3.125–50 μM
Method: Thus, SPR assays were carried out. RdRp protein was immobilized on a CM5 sensor chip through amine coupling.
The SPR was carried out using BIAcore T200 (GE Healthcare, Uppsala, Sweden) at 25 °C. RdRp was diluted by 10 mM sodium acetate (pH 4.5) and then immobilized on a CM5 sensor chip using an NHS/EDC amine-coupling kit in 1× PBS-P running buffer. Different concentrations (3.125–50 μM) of compounds flowed through the sensor chip surface and the RUs was detected. The equilibrium dissociation constant (KD) was fitted using the BIAcore Evaluation Software.

Huh-7 cells [6] = test system: Huh-7 cells; design: method as in PMID 19760134; details: ≤ 10 μM; cited from earlier work

T1 sequence (A0A024B7W1 2786-3423): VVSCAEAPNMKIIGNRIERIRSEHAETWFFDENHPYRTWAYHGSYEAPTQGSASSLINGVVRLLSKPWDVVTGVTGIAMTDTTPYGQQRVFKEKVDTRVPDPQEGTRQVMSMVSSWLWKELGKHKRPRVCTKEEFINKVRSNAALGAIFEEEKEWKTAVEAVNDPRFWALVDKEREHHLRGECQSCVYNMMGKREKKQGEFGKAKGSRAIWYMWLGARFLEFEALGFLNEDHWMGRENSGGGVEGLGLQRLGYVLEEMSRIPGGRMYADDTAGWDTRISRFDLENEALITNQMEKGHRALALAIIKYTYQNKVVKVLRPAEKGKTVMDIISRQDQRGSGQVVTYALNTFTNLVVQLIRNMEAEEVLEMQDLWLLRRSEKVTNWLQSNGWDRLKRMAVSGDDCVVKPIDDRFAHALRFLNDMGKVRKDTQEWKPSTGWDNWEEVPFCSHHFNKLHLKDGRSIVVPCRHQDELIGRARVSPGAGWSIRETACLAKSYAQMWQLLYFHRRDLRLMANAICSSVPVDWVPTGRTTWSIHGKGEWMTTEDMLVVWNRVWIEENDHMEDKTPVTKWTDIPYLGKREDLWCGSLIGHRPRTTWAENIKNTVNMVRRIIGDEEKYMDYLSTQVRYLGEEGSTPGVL

Compound: CC[C@@H]([C@H](C)O)n1ncn(-c2ccc(N3CCN(c4ccc(OC[C@@H]5CO[C@@](Cn6cncn6)(c6ccc(F)cc6F)C5)cc4)CC3)cc2)c1=O [POS, Posaconazole]
- CC50 at 24 h ([1]; Huh-7 cells): 101 µM
- Cytotoxicity (in words) at concentrations used in the anti-ZIKV assay (Huh-7 cells [2]; WST-8, 24 h, ≤ 6.4 μM): low
- EC50 (ZIKV (SMGC-1); Huh-7 cells, ZIKV (SMGC-1) MOI 0.2, 48 h, FACS): 0.59 µM
- EC50 (dengue virus): 4.1 µM
- Effect on replication of ZIKV sub-genomic replicon RNA (in words) [3]: inhibit the replication

Compound: CCCCCCOC(=O)NC(=N)c1ccc(NCc2nc3cc(C(=O)N(CCC(=O)OCC)c4ccccn4)ccc3n2C)cc1 [DAB, Dabigatran etexilate]
- IC50 (ZIKV NS5 RdRp [4]): 11.3 µM

Compound: CCC(C)n1ncn(-c2ccc(N3CCN(c4ccc(OCC5COC(Cn6cncn6)(c6ccc(Cl)cc6Cl)O5)cc4)CC3)cc2)c1=O (stereo not shown) [ITR, Itraconazole]
- IC50 (ZIKV NS5 RdRp [4]): 1.82 µM
- CC50 at 24 h [1]: > 100 µM
- Binding to RdRp by SPR (in words) (ZIKV NS5 RdRp [5]): almost no binding signals

Compound: CCN(CC)CCCC(C)Nc1ccnc2cc(Cl)ccc12 (stereo not shown) [chloroquine, Chloroquine]
- EC50 (ZIKV (SMGC-1); Huh-7, 48 h): 2.8 µM
- Cytotoxicity to Huh-7 cells (in words) (Huh-7 cells [6]): no significant cytotoxicity

Compound: Cc1cc2c(C(C)C)c(O)c(O)c(C=O)c2c(O)c1-c1c(C)cc2c(C(C)C)c(O)c(O)c(C=O)c2c1O [GOS, Gossypol (acetic acid)]
- CC50 at 24 h [1]: 7.79 µM
- Cytotoxicity (in words) at 5 μM (Huh-7 cells [2]; WST-8, concentration of 5 μM): obvious cell toxicity
